Measured values published in US8829014B2, “Thiazole and thiophene analogues, and their use in treating autoimmune diseases and cancers” (Board of Supervisors of Louisiana State University and …, priority 2006, dated 2014).

Tests used:
AP-1 = experiment: PMA-induced AP-1 luciferase expression in HEK cells; type: cell-based; settings: luciferase in HEK/AP-1 cells, as described in Example 398; for inhibition at 1 µM: AP1, 1 uM
NF-κB = experiment: TNF-α-induced NF-κB-dependent luciferase expression in HEK cells; type: cell-based; settings: luciferase in HEK/NF-κB cells, as described in Example 398; for inhibition at 1 µM: Homo sapiens, HEK293, 1 uM, read-out: NFkB inhibition @ 1 uM
carageenan-induced edema = experiment: Carrageenan-induced rat paw edema test (anti-inflammatory activity); type: in vivo, Sprague-Dawley rats; settings: rat paw edema, 50 mg/kg, reading 3 hours after carrageenan, [(Control−Test)/Control]×100%; for inhibition in vivo at 50 mg/kg: Rattus norvegicus, po, 3 h, read-out: % Protection P
Method in brief: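 Edema was raised by sub-plantar injection of 1% carrageenan into the right hind paw, 1 h after dosing 18 h-fasted male/female Sprague-Dawley rats (150-250 g) with 50 mg/kg p.o. in 0.1% CMC. Swelling was measured by displacement 3 h later and expressed as % protection against saline control.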

## COc1ccccc1-n1c(-c2cc(-c3ccc(S(C)(=O)=O)cc3)c(N3CCOCC3)s2)nc2ccccc2c1=O [Example 297, 2-[4-(4-Methanesulphonyl-phenyl)-5-morpholin-4-yl-thiophen-2-yl]-3-(2-methoxy-phenyl)-3H-quinazolin-4-one]
AP-1
  inhibition at 1 µM: 33%
NF-κB
  inhibition at 1 µM: 55%
carageenan-induced edema
  inhibition in vivo at 50 mg/kg: 63%

## COc1cccc(-n2c(-c3cc(-c4ccc(S(C)(=O)=O)cc4)c(N4CCOCC4)s3)nc3ccccc3c2=O)c1 [Example 300, 2-[4-(4-Methanesulphonyl-phenyl)-5-morpholin-4-yl-thiophen-2-yl]-3-(3-methoxy-phenyl)-3H-quinazolin-4-one]
AP-1
  inhibition at 1 µM: -4%
NF-κB
  inhibition at 1 µM: 20%
carageenan-induced edema
  inhibition in vivo at 50 mg/kg: 48%

## COc1ccc(-n2c(-c3cc(-c4ccc(S(C)(=O)=O)cc4)c(N4CCOCC4)s3)nc3ccccc3c2=O)cc1 [Example 303, 2-[4-(4-Methanesulphonyl-phenyl)-5-morpholin-4-yl-thiophen-2-yl]-3-(4-methoxy-phenyl)-3H-quinazolin-4-one]
AP-1
  inhibition at 1 µM: 10%
NF-κB
  inhibition at 1 µM: 60%
carageenan-induced edema
  inhibition in vivo at 50 mg/kg: 53%

## O=c1c2ccccc2nc(-c2cc(-c3ccncc3)c(N3CCOCC3)s2)n1-c1ccccc1Cl [Example 308, 3-(2-Chloro-phenyl)-2-(5-morpholin-4-yl-4-pyridin-4-yl-thiophen-2-yl)-3H-quinazolin-4-one]
AP-1
  inhibition at 1 µM: 35%
NF-κB
  inhibition at 1 µM: 80%
carageenan-induced edema
  inhibition in vivo at 50 mg/kg: 43%

## O=c1c2ccccc2nc(-c2cc(-c3ccccc3)c(N3CCOCC3)s2)n1-c1ccc(Cl)cc1 [Example 309, 3-(4-Chloro-phenyl)-2-(5-morpholin-4-yl-4-phenyl-thiophen-2-yl)-3H-quinazolin-4-one]
AP-1
  inhibition at 1 µM: 2%
NF-κB
  inhibition at 1 µM: 0%
carageenan-induced edema
  inhibition in vivo at 50 mg/kg: 66%

## O=c1c2ccccc2nc(-c2cc(-c3ccc(Cl)cc3)c(N3CCOCC3)s2)n1-c1ccc(Cl)cc1 [Example 310, 2-[4-(4-Chloro-phenyl)-5-morpholin-4-yl-thiophene-2-yl]-3-(4-chloro-phenyl)-3H-quinazolin-4-one]
AP-1
  inhibition at 1 µM: 14%
NF-κB
  inhibition at 1 µM: 0%
carageenan-induced edema
  inhibition in vivo at 50 mg/kg: 60%

## CC(=O)Nc1ccc(-c2cc(-c3nc4ccccc4c(=O)n3-c3ccc(Cl)cc3)sc2N2CCOCC2)cc1 [Example 311]
AP-1
  AP-1 inhibition @ 1 uM: 17
NF-κB
  NFkB inhibition @ 1 uM: 0
carageenan-induced edema
  % Protection P: 28%

## CS(=O)(=O)c1ccc(-c2cc(-c3nc4ccccc4c(=O)n3-c3ccc(Cl)cc3)sc2N2CCOCC2)cc1 [Example 312, 2-[4-(4-Methanesulphonyl-phenyl)-5-morpholin-4-yl-thiophen-2-yl]-3-(4-chloro-phenyl)-3H-quinazolin-4-one]
AP-1
  inhibition at 1 µM: 7%
NF-κB
  inhibition at 1 µM: 0%
carageenan-induced edema
  inhibition in vivo at 50 mg/kg: 57%

## O=c1c2ccccc2nc(-c2cc(-c3ccncc3)c(N3CCOCC3)s2)n1-c1ccc(Cl)cc1 [Example 313, 3-(4-Chloro-phenyl)-2-(5-morpholin-4-yl-4-pyridin-4-yl-thiophen-2-yl)-3H-quinazolin-4-one]
AP-1
  inhibition at 1 µM: 32%
NF-κB
  inhibition at 1 µM: 68%
carageenan-induced edema
  inhibition in vivo at 50 mg/kg: 52%

## CC(=O)c1ccc(-n2c(-c3cc(-c4ccccc4)c(N4CCOCC4)s3)nc3ccccc3c2=O)cc1 [Example 314]
AP-1
  AP-1 inhibition @ 1 uM: 25
NF-κB
  NFkB inhibition @ 1 uM: 0
carageenan-induced edema
  % Protection P: 36%

## CC(=O)c1ccc(-c2cc(-c3nc4ccccc4c(=O)n3-c3ccc(Cl)cc3)sc2N2CCOCC2)cc1 [Example 315, 2-[4-(4-Acetyl-phenyl)-5-morpholin-4-yl-thiophene-2-yl]-3-(4-chloro-phenyl)-3H-quinazolin-4-one]
AP-1
  inhibition at 1 µM: 7%
NF-κB
  inhibition at 1 µM: 0%
carageenan-induced edema
  inhibition in vivo at 50 mg/kg: 51%

## CC(=O)c1ccc(-n2c(-c3cc(-c4ccc(S(C)(=O)=O)cc4)c(N4CCOCC4)s3)nc3ccccc3c2=O)cc1 [Example 317, 2-[4-(4-Methanesulphonyl-phenyl)-5-morpholin-4-yl-thiophen-2-yl]-3-(4-acetyl-phenyl)-3H-quinazolin-4-one]
AP-1
  inhibition at 1 µM: 31%
NF-κB
  inhibition at 1 µM: 46%
carageenan-induced edema
  inhibition in vivo at 50 mg/kg: 73%

## CC(=O)c1ccc(-n2c(-c3cc(-c4ccncc4)c(N4CCOCC4)s3)nc3ccccc3c2=O)cc1 [Example 319, 3-(4-acetyl-phenyl)-2-(5-morpholin-4-yl-4-pyridin-4-yl-thiophen-2-yl)-3Hquinazolin-4-one]
AP-1
  inhibition at 1 µM: 84%
NF-κB
  inhibition at 1 µM: 66%
carageenan-induced edema
  inhibition in vivo at 50 mg/kg: 81%

## Cc1c(OCC(F)(F)F)ccnc1-c1sc(Nc2ccccc2)nc1N [Example 331, 5-[3-Methyl-4-(2,2,2-trifluoro-ethoxy)-pyridin-2-yl]-N2-phenyl-thiazole-2,4-diamine]
AP-1
  inhibition at 1 µM: 27.4%
NF-κB
  inhibition at 1 µM: -10.6%
carageenan-induced edema
  inhibition in vivo at 50 mg/kg: 62.3%

## COc1ccc(C(=O)c2sc(Nc3ccc(Cl)cc3)nc2N)cc1 [Example 332, [4-Amino-2-(4-chloro-phenylamino)-thiazol-5-yl]-(4-methoxy-phenyl)-methanone]
AP-1
  inhibition at 1 µM: -32.2%
NF-κB
  inhibition at 1 µM: 0.13%
carageenan-induced edema
  inhibition in vivo at 50 mg/kg: 36%

## Nc1nc(Nc2ccc(Cl)cc2)sc1C(=O)c1cccnc1 [Example 338, (4-Amino-2-(4-chlorophenylamino)-thiazol-5-yl)-pyridin-3-yl-methanone]
AP-1
  inhibition at 1 µM: -89.1%
NF-κB
  inhibition at 1 µM: -84.1%
carageenan-induced edema
  inhibition in vivo at 50 mg/kg: 25.8%

## Nc1nc(Nc2ccc(Cl)cc2)sc1C(=O)c1ccccn1 [Example 340, [4-Amino-2-(4-chloro-phenylamino)-thiazol-5-yl]-pyridin-2-yl-methanone]
AP-1
  inhibition at 1 µM: 57.3%
NF-κB
  inhibition at 1 µM: -18.2%
carageenan-induced edema
  inhibition in vivo at 50 mg/kg: 34%

## COc1ccc(Nc2nc(N)c(C(=O)c3ccc(C)cc3)s2)cc1 [Example 344, ([4-Amino-2-(4-methoxy-phenylamino)-thiazol-5-yl]-p-tolyl-methanone)]
AP-1
  inhibition at 1 µM: 70.3%
NF-κB
  inhibition at 1 µM: 49%
carageenan-induced edema
  inhibition in vivo at 50 mg/kg: 79.8%

## COc1ccc(Nc2nc(N)c(C(=O)c3ccc(Cl)cc3Cl)s2)cc1 [Example 346, ([4-Amino-2-(4-methoxy-phenylamino)-thiazol-5-yl]-(2,4-dichloro-phenyl)-methanone)]
AP-1
  inhibition at 1 µM: 64.6%
NF-κB
  inhibition at 1 µM: -4.13%
carageenan-induced edema
  inhibition in vivo at 50 mg/kg: 28.3%

## COc1ccc(Nc2nc(N)c(C(=O)c3cccnc3)s2)cc1 [Example 349, ([4-Amino-2-(4-methoxy-phenylamino)-thiazol-5-yl]-pyridin-3-yl-methanone)]
AP-1
  inhibition at 1 µM: 51.5%
NF-κB
  inhibition at 1 µM: -35.9%
carageenan-induced edema
  inhibition in vivo at 50 mg/kg: 18.2%

## COc1ccc(Nc2nc(N)c(C(=O)c3ccccn3)s2)cc1 [Example 351, ([4-Amino-2-(4-methoxy-phenylamino)-thiazol-5-yl]-pyridin-2-yl-methanone)]
AP-1
  inhibition at 1 µM: 51.5%
NF-κB
  inhibition at 1 µM: -35.9%
carageenan-induced edema
  inhibition in vivo at 50 mg/kg: 27%

## COc1ccc(Nc2nc(N)c(-c3nccc(OCC(F)(F)F)c3C)s2)cc1 [Example 353, (N2-(4-Methoxy-phenyl)-5-[3-Methyl-4-(2,2,2-trifluoro-ethoxy)-pyridin-2-yl]-thiazole-2,4-diamine)]
AP-1
  inhibition at 1 µM: 62%
NF-κB
  inhibition at 1 µM: 59.1%
carageenan-induced edema
  inhibition in vivo at 50 mg/kg: 82.5%

## Cc1ccc(C(=O)c2sc(Nc3ccc(Cl)cc3)nc2NC(=O)Nc2ccc(F)cc2)cc1 [Example 356, 1-[2-(4-Chloro-phenylamino)-5-(4-methyl-benzoyl)-thiazol-4-yl]-3-(4-fluoro-phenyl)-urea]
AP-1
  inhibition at 1 µM: 48.4%
NF-κB
  inhibition at 1 µM: 54.6%
carageenan-induced edema
  inhibition in vivo at 50 mg/kg: 69.5%

## Cc1ccc(C(=O)c2sc(N3CCN(C(=O)c4ccco4)CC3)nc2-c2ccco2)cc1 [Example 371, {2-[4-(Furan-2-carbonyl)-piperazin-1-yl]-4-furan-2-yl-thiazol-5-yl}-p-tolyl-methanone]
AP-1
  inhibition at 1 µM: 25.6%
NF-κB
  inhibition at 1 µM: 10.4%
carageenan-induced edema
  inhibition in vivo at 50 mg/kg: 34%

## O=C(c1ccc(Cl)cc1)c1sc(N2CCN(C(=O)c3ccco3)CC2)nc1-c1ccco1 [Example 373, (4-Chloro-phenyl)-{2-[4-(furan-2-carbonyl)-piperazin-1-yl]-4-furan-2-yl-thiazol-5-yl}-methanone]
AP-1
  inhibition at 1 µM: 26.9%
NF-κB
  inhibition at 1 µM: -6.07%
carageenan-induced edema
  inhibition in vivo at 50 mg/kg: 42%

## O=C(c1ccc(Cl)cc1Cl)c1sc(N2CCN(C(=O)c3ccco3)CC2)nc1-c1ccco1 [Example 374, (2,4-Dichloro-phenyl)-{2-[4-(furan-2-carbonyl)-piperazin-1-yl]-4-furan-2-yl-thiazol-5-yl}-methanone]
AP-1
  inhibition at 1 µM: 46.2%
NF-κB
  inhibition at 1 µM: 6.25%
carageenan-induced edema
  inhibition in vivo at 50 mg/kg: 62.6%

## CS(=O)(=O)c1ccc(C(=O)c2sc(N3CCN(C(=O)c4ccco4)CC3)nc2-c2ccco2)cc1 [Example 375, {2-[4-(Furan-2-carbonyl)-piperazin-1-yl]-4-furan-2-yl-thiazol-5-yl}-(4-methanesulfonyl-phenyl)-methanone]
AP-1
  inhibition at 1 µM: 22.1%
NF-κB
  inhibition at 1 µM: -13.2%
carageenan-induced edema
  inhibition in vivo at 50 mg/kg: 49%

## O=C(c1cccnc1)c1sc(N2CCN(C(=O)c3ccco3)CC2)nc1-c1ccco1 [Example 376, {2-[4-(Furan-2-carbonyl)-piperazin-1-yl]-4-furan-2-yl-thiazol-5-yl}-pyridin-3-yl-methanone]
AP-1
  inhibition at 1 µM: 45.9%
NF-κB
  inhibition at 1 µM: -14.1%
carageenan-induced edema
  inhibition in vivo at 50 mg/kg: 33%
